Patent publication US20080280891A1, “Anti-cancer agents and uses thereof” (Locus Pharmaceuticals, Inc., priority 2006, published 2008)

What was measured:
[1] = system: NCI-H522 non small cell lung cancer cells; assay: Cell cycle assay (Example 164), G2/M block in NCI-H522 cells; type: cell-based; settings: Homo sapiens; for activation at 0.1 µM: 24 h, flow cytometry (PI)
Experimental: (§1) The adherent MCF-7 breast cancer cells and NCI-H522 non small cell lung cancer cells were grown and maintained in EMEM cell culture media containing 10% fetal calf serum.
(§2) Cells were allowed to adhere for 24 hrs. After adherence, cell culture media was changed to that containing 0.5% FCS. Thirty minutes post-media change, test compounds were added at a concentration of either 1.0 or 0.1 μM (as specified in the Tables). Twenty-four hours after test agent addition, cells were analyzed for cell cycle status as described below.
(§3) Cell cycle status was analyzed by flow cytometry. Briefly, cells were collected and washed with FACs buffer (Pharmingen) and resuspended and fixed in 1 mL of 80% ethanol for 1 hr. Cells were washed with FACs buffer and resuspended in propidium iodide(PI)/RNase staining buffer (Pharmingen). PI is a fluorescent dye that labels nucleic acids such as DNA. The fluorescence within a cell (in the presence of PI) is proportional to the amount of DNA within a cell. The cell content of DNA is an indicator of status in the cell cycle. […] Cells in the S phase have DNA content that lies between these extremes.
(§4) For testing of cell cycle effects of test agents the percentage of cells within the G1 and G2/M phase were measured.

[2] = system: MCF-7 breast cancer cells; assay: Cell cycle assay (Example 164), G2/M block in MCF-7 cells; type: cell-based; settings: 24 h, flow cytometry (PI); for activation at 0.1 µM: Homo sapiens, MCF7, Table 4; for MCF-7 G2/M Block 1 μM: Table 3
Experimental: as §1, §2, §3, §4

Compound | activation at 0.1 µM ([1]; Table 4) [%] | activation at 0.1 µM [2] [%] | activation at 0.1 µM ([1]; Table 3) [%] | MCF-7 G2/M Block 1 μM [2] | IC50 ([1]; H522, footnotes * and ** of Table 4, read-out: IC50 (footnote mark in H522 G2/M Block)) [µM]
O=C(CO)Nc1cc(C(=O)c2ccnc(N3CCOCC3)c2)cc(-c2cccc3[nH]ccc23)c1 [2-Hydroxy-N-[3-(1H-indol-4-yl)-5-(2-morpholin-4-yl-pyridine-4-carbonyl)-phenyl]-acetamide] | ≥ 50 | ≥ 50 | – | – | –
COc1cc(C(=O)c2cc(C(N)=O)cc(-c3cccc4[nH]ccc34)c2)ccn1 [3-(1H-Indol-4-yl)-5-(2-methoxy-pyridine-4-carbonyl)-benzamide] | ≥ 50 | ≥ 50 | – | – | –
Nc1nccc(-c2cc(O)cc(-c3cccc4[nH]ccc34)c2)n1 [3-(2-Amino-pyrimidin-4-yl)-5-(1H-indol-4-yl)-phenol] | ≥ 50 | < 50 | – | – | –
CN(C)c1ncccc1Nc1cc(O)cc(-c2cccc3[nH]ccc23)c1 [3-(2-Dimethylamino-pyridin-3-ylamino)-5-(1H-indol-4-yl)-phenol] | – | – | ≥ 50 | Y (Y indicates a 50% or greater increase in the number of cells in the G2/M phase, as compared to control) | –
CCc1ncccc1Nc1cc(O)cc(-c2cccc3[nH]ccc23)c1 [3-(2-Ethyl-pyridin-3-ylamino)-5-(1H-indol-4-yl)-phenol] | – | – | ≥ 50 | Y (Y indicates a 50% or greater increase in the number of cells in the G2/M phase, as compared to control) | –
Nc1nccc(-c2cc(Br)cc(-c3cccc4[nH]ccc34)c2)n1 [4-[3-Bromo-5-(1H-indol-4-yl)-phenyl]-pyrimidin-2-ylamine] | ≥ 50 | ≥ 50 | – | – | –
N#Cc1ccc(Nc2cc(O)cc(-c3cccc4[nH]ccc34)c2)cc1 [4-[3-Hydroxy-5-(1H-indol-4-yl)-phenylamino]-benzonitrile] | – | – | ≥ 50 | N (N indicates a less than 50% increase at this dose) | –
CS(=O)(=O)Nc1cc(-c2cc(C(F)(F)F)ccc2F)cc(-c2cccc3[nH]ccc23)c1 [N-[2′-fluoro-5-(1H-indol-4-yl)-5′-trifluoromethyl-biphenyl-3-yl]-methanesulfonamide] | ≥ 50 | ≥ 50 | – | – | –
COc1cc(C(=O)c2cc(NS(C)(=O)=O)cc(-c3cccc4[nH]ccc34)c2)cc(C)n1 [N-[3-(1H-Indol-4-yl)-5-(2-methoxy-6-methyl-pyridine-4-carbonyl)-phenyl]-methanesulfonamide] | ≥ 50 | ≥ 50 | – | – | –
COc1cc(C(=O)c2cc(NS(C)(=O)=O)cc(-c3cccc4[nH]ccc34)c2)ccn1 [N-[3-(1H-Indol-4-yl)-5-(2-methoxy-pyridine-4-carbonyl)-phenyl]-methanesulfonamide] | – | – | ≥ 50 | Y (Y indicates a 50% or greater increase in the number of cells in the G2/M phase, as compared to control) | –
CC(=O)Nc1cc(C(=O)c2cc(C)nc(N3CCOCC3)c2)cc(-c2cccc3[nH]ccc23)c1 [N-[3-(1H-Indol-4-yl)-5-(2-methyl-6-morpholin-4-yl-pyridine-4-carbonyl)-phenyl]-acetamide] | ≥ 50 | ≥ 50 | – | – | –
Cc1cc(C(=O)c2cc(NS(C)(=O)=O)cc(-c3cccc4[nH]ccc34)c2)cc(N2CCOCC2)n1 [N-[3-(1H-Indol-4-yl)-5-(2-methyl-6-morpholin-4-yl-pyridine-4-carbonyl)-phenyl]-methanesulfonamide] | ≥ 50 | ≥ 50 | – | – | –
CC(=O)Nc1cc(C(=O)c2ccnc(N3CCOCC3)c2)cc(-c2cccc3[nH]ccc23)c1 [N-[3-(1H-Indol-4-yl)-5-(2-morpholin-4-yl-pyridine-4-carbonyl)-phenyl]-acetamide] | ≥ 50 | ≥ 50 | – | – | –
CS(=O)(=O)Nc1cc(C(=O)c2ccnc(N3CCOCC3)c2)cc(-c2cccc3[nH]ccc23)c1 [N-[3-(1H-Indol-4-yl)-5-(2-morpholin-4-yl-pyridine-4-carbonyl)-phenyl]-methanesulfonamide] | ≥ 50 | ≥ 50 | – | – | –
CS(=O)(=O)Nc1cc(C(=O)c2ccnc(N3CCSCC3)c2)cc(-c2cccc3[nH]ccc23)c1 [N-[3-(1H-Indol-4-yl)-5-(2-thiomorpholin-4-yl-pyridine-4-carbonyl)-phenyl]-methanesulfonamide] | ≥ 50 | ≥ 50 | – | – | –
CS(=O)(=O)Nc1cc(C(=O)c2ccnc(N3CCCCC3)c2)cc(-c2cccc3[nH]ccc23)c1 [N-[3-(1H-Indol-4-yl)-5-(3,4,5,6-tetrahydro-2H-[1,2′]bipyridinyl-4′-carbonyl)-phenyl]-methanesulfonamide] | ≥ 50 | < 50 | – | – | –
COc1ccc(-c2cc(NC(C)=O)cc(-c3cccc4[nH]ccc34)c2)cn1 [N-[3-(1H-Indol-4-yl)-5-(6-methoxy-pyridin-3-yl)-phenyl]-acetamide] | ≥ 50 | ≥ 50 | – | – | –

Compound | activation at 0.1 µM ([1]; Table 4) [%] | activation at 0.1 µM [2] [%] | activation at 0.1 µM ([1]; Table 3) [%] | MCF-7 G2/M Block 1 μM [2] | IC50 ([1]; H522, footnotes * and ** of Table 4, read-out: IC50 (footnote mark in H522 G2/M Block)) [µM]
COc1ccc(-c2cc(NS(C)(=O)=O)cc(-c3cccc4[nH]ccc34)c2)cn1 [N-[3-(1H-Indol-4-yl)-5-(6-methoxy-pyridin-3-yl)-phenyl]-methanesulfonamide] | ≥ 50 | ≥ 50 | – | – | –
CC(=O)Nc1cc(-c2cccnc2)cc(-c2cccc3[nH]ccc23)c1 [N-[3-(1H-Indol-4-yl)-5-pyridin-3-yl-phenyl]-acetamide] | ≥ 50 | ≥ 50 | – | – | –
CC(=O)Nc1cc(-c2ccncc2)cc(-c2cccc3[nH]ccc23)c1 [N-[3-(1H-Indol-4-yl)-5-pyridin-4-yl-phenyl]-acetamide] | ≥ 50 | ≥ 50 | – | – | –
CS(=O)(=O)Nc1cc(-c2ccnc(N)n2)cc(-c2cccc3[nH]ccc23)c1 [N-[3-(2-Amino-pyrimidin-4-yl)-5-(1H-indol-4-yl)-phenyl]-methanesulfonamide] | ≥ 50 | ≥ 50 | – | – | –
CC(=O)Nc1cc(-c2ccnc(Cl)c2)cc(-c2cccc3[nH]ccc23)c1 [N-[3-(2-Chloro-pyridin-4-yl)-5-(1H-indol-4-yl)-phenyl]-acetamide] | ≥ 50 | – | – | – | –
CS(=O)(=O)Nc1cc(-c2ccnc(Cl)c2)cc(-c2cccc3[nH]ccc23)c1 [N-[3-(2-Chloro-pyridin-4-yl)-5-(1H-indol-4-yl)-phenyl]-methanesulfonamide] | ≥ 50 | ≥ 50 | – | – | –
CC(=O)Nc1cc(C(=O)c2cc(C)nc(N(C)C)c2)cc(-c2cccc3[nH]ccc23)c1 [N-[3-(2-Dimethylamino-6-methyl-pyridine-4-carbonyl)-5-(1H-indol-4-yl)-phenyl]-acetamide] | ≥ 50 | ≥ 50 | – | – | –
Cc1cc(C(=O)c2cc(NS(C)(=O)=O)cc(-c3cccc4[nH]ccc34)c2)cc(N(C)C)n1 [N-[3-(2-Dimethylamino-6-methyl-pyridine-4-carbonyl)-5-(1H-indol-4-yl)-phenyl]-methanesulfonamide] | ≥ 50 | ≥ 50 | – | – | –
CC(=O)Nc1cc(C(=O)c2ccnc(N(C)C)c2)cc(-c2cccc3[nH]ccc23)c1 [N-[3-(2-Dimethylamino-pyridine-4-carbonyl)-5-(1H-indol-4-yl)-phenyl]-acetamide] | ≥ 50 | ≥ 50 | – | – | –
CN(C)c1cc(C(=O)c2cc(NS(C)(=O)=O)cc(-c3cccc4[nH]ccc34)c2)ccn1 [N-[3-(2-Dimethylamino-pyridine-4-carbonyl)-5-(1H-indol-4-yl)-phenyl]-methanesulfonamide] | ≥ 50 | ≥ 50 | – | – | –
CC(=O)Nc1cc(-c2ccc(Cl)nc2)cc(-c2cccc3[nH]ccc23)c1 [N-[3-(6-Chloro-pyridin-3-yl)-5-(1H-indol-4-yl)-phenyl]-acetamide] | ≥ 50 | – | – | – | –
CCOc1ccc(-c2cc(NC(C)=O)cc(-c3cccc4[nH]ccc34)c2)cn1 [N-[3-(6-Ethoxy-pyridin-3-yl)-5-(1H-indol-4-yl)-phenyl]-acetamide] | < 50 | – | – | – | 0.1 to 1
CS(=O)(=O)Nc1cc(-c2nc3ccccc3o2)cc(-c2cccc3[nH]ccc23)c1 [N-[3-Benzoxazol-2-yl-5-(1H-indol-4-yl)-phenyl]-methanesulfonamide] | ≥ 50 | ≥ 50 | – | – | –
CS(=O)(=O)Nc1cc(-c2ccc3c(c2)OCO3)cc(-c2cccc3[nH]ccc23)c1 [N-[3-benzo[1,3]dioxol-5-yl-5-(1H-indol-4-yl)-phenyl]-methanesulfonamide] | ≥ 50 | ≥ 50 | – | – | –
CC(=O)Nc1cc(-c2ccc(F)cc2F)cc(-c2cccc3[nH]ccc23)c1 [N-[5-(1H-Indol-4-yl)-2′,4′-difluoro-biphenyl-3-yl]-acetamide] | ≥ 50 | ≥ 50 | – | – | –
CS(=O)(=O)Nc1cc(-c2ccc(F)cc2F)cc(-c2cccc3[nH]ccc23)c1 [N-[5-(1H-Indol-4-yl)-2′,4′-difluoro-biphenyl-3-yl]-methanesulfonamide] | ≥ 50 | < 50 | – | – | –
CC(=O)Nc1cc(-c2cccc(C)c2)cc(-c2cccc3[nH]ccc23)c1 [N-[5-(1H-Indol-4-yl)-3′-methyl-biphenyl-3-yl]-acetamide] | ≥ 50 | ≥ 50 | – | – | –
